# Test results taken from patent US11230538B2, “Herbicides” (SYNGENTA PARTICIPATIONS AG, priority 2016, dated 2022).
# Assays:
# Format in all cases: in vivo
# [1] = tested on: Amaranthus retroflexus (AMARE); assay: B1 Pre-emergence herbicidal activity; parameters: key: 5=total damage to plant; 0=no damage to plant; conditions: pre-emergence application, Rate 1000 g/ha, evaluated after 13 days, Test 1b
# In short: (§1)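 Pots of sown seeds were sprayed one day after sowing, pre-emergence, with compound in acetone/water (50:50) containing 0.5% Tween 20. Plants were grown in a glasshouse at 24/16 °C day/night, 14 h light and 65% humidity. Damage was scored after 13 days on a 0 (none) to 5 (total) scale.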
# [2] = tested on: Zea Mays (ZEAMX); assay: B1 Pre-emergence herbicidal activity; parameters: key: 5=total damage to plant; 0=no damage to plant; conditions: pre-emergence application, Rate 1000 g/ha, evaluated after 13 days, Test 1b
# In short: as §1
# [3] = tested on: Echinochloa crus-galli (ECHCG); assay: B1 Pre-emergence herbicidal activity; parameters: key to Pre-emergence herbicidal activity, ECHCG (damage score 0-5): 5=total damage to plant; 0=no damage to plant; conditions: pre-emergence application, evaluated after 13 days; for ECHCG damage score (0-5): Rate 1000 g/ha, Test 1b
# In short: as §1
# [4] = tested on: Lolium perenne (LOLPE); assay: B1 Pre-emergence herbicidal activity; conditions: pre-emergence application, evaluated after 13 days; for LOLPE damage score (0-5): Rate 1000 g/ha, Test 1b
# In short: as §1
# [5] = tested on: Abutilon theophrasti (ABUTH); assay: B1 Pre-emergence herbicidal activity; conditions: pre-emergence application, Rate 1000 g/ha, evaluated after 13 days, Test 1b
# Protocol: Seeds of a variety of test species were sown in standard soil in pots: Triticum aestivium (TRZAW), Avena fatua (AVEFA), Alopecurus myosuroides (ALOMY), Echinochloa crus-galli (ECHCG), Lolium perenne (LOLPE), Zea Mays (ZEAMX), Abutilon theophrasti (ABUTH), Amaranthus retroflexus (AMARE) and Setaria fabenr (SETFA). After cultivation for one day (pre-emergence) under controlled conditions in a glasshouse (at 24/16° C., day/night; 14 hours light; 65% humidity), the plants were sprayed with an aqueous spray solution derived from the formulation of the technical active ingredient in acetone I water (50:50) solution containing 0.5% Tween 20 (polyoxyethelyene sorbitan monolaurate, CAS RN 9005-64-5). The test plants were then grown in a glasshouse under controlled conditions (at 24/16° C., day/night; 14 hours light; 65% humidity) and watered twice daily. After 13 days, the test was evaluated (5=total damage to plant; 0=no damage to plant).
# [6] = tested on: Setaria fabenr (SETFA); assay: B1 Pre-emergence herbicidal activity; parameters: key to Pre-emergence herbicidal activity, SETFA (damage score 0-5): 5=total damage to plant; 0=no damage to plant; conditions: pre-emergence application, evaluated after 13 days; for SETFA damage score (0-5): Rate 1000 g/ha, Test 1b
# In short: as §1
# [7] = tested on: Abutilon theophrasti (ABUTH); assay: B2 Post-emergence herbicidal activity; conditions: post-emergence application, Rate 1000 g/ha, evaluated after 13 days, Test 2b
# In short: (§2)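 Plants grown 8 days in a glasshouse (24/16° C day/night, 14 h light, 65% humidity) were sprayed post-emergence with active ingredient formulated in acetone/water (50:50) containing 0.5% Tween 20. Damage was scored after 13 days on a 0–5 scale (5 = total damage).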
# [8] = tested on: Amaranthus retroflexus (AMARE); assay: B2 Post-emergence herbicidal activity; conditions: post-emergence application, Rate 1000 g/ha, evaluated after 13 days, Test 2b
# In short: as §2
# [9] = tested on: Echinochloa crus-galli (ECHCG); assay: B2 Post-emergence herbicidal activity; parameters: key to Post-emergence herbicidal activity, ECHCG (damage score 0-5): 5=total damage to plant; 0=no damage to plant; conditions: post-emergence application, evaluated after 13 days; for ECHCG damage score (0-5): Rate 1000 g/ha, Test 2b
# In short: as §2
# [10] = tested on: Lolium perenne (LOLPE); assay: B2 Post-emergence herbicidal activity; conditions: post-emergence application, evaluated after 13 days; for LOLPE damage score (0-5): Rate 1000 g/ha, Test 2b
# In short: as §2
# [11] = tested on: Setaria fabenri (SETFA); assay: B2 Post-emergence herbicidal activity; parameters: key: 5=total damage to plant; 0=no damage to plant; conditions: post-emergence application, evaluated after 13 days; for SETFA damage score (0-5): Rate 1000 g/ha, Test 2b
# In short: as §2
# [12] = tested on: Zea Mays (ZEAMX); assay: B2 Post-emergence herbicidal activity; parameters: key: 5=total damage to plant; 0=no damage to plant; conditions: post-emergence application, Rate 1000 g/ha, evaluated after 13 days, Test 2b
# In short: as §2
# [13] = tested on: Alopecurus myosuroides (ALOMY); assay: B1 Pre-emergence herbicidal activity; parameters: key: 5=total damage to plant; 0=no damage to plant; conditions: pre-emergence application, evaluated after 13 days
# In short: as §1
# [14] = tested on: Avena fatua (AVEFA); assay: B1 Pre-emergence herbicidal activity; parameters: key: 5=total damage to plant; 0=no damage to plant; conditions: pre-emergence application, evaluated after 13 days
# In short: as §1
# [15] = tested on: Triticum aestivium (TRZAW); assay: B1 Pre-emergence herbicidal activity; parameters: key: 5=total damage to plant; 0=no damage to plant; conditions: pre-emergence application, evaluated after 13 days
# In short: as §1
# [16] = tested on: Avena fatua (AVEFA); assay: B2 Post-emergence herbicidal activity; conditions: post-emergence application, evaluated after 13 days
# In short: as §2
# [17] = tested on: Alopecurus myosuroides (ALOMY); assay: B2 Post-emergence herbicidal activity; parameters: key: 5=total damage to plant; 0=no damage to plant; conditions: post-emergence application, evaluated after 13 days
# In short: as §2
# [18] = tested on: Triticum aestivium (TRZAW); assay: B2 Post-emergence herbicidal activity; parameters: key: 5=total damage to plant; 0=no damage to plant; conditions: post-emergence application, evaluated after 13 days
# In short: as §2
SMILES,AMARE damage score (0-5) [1],ZEAMX damage score (0-5) [2],ECHCG damage score (0-5) [3],LOLPE damage score (0-5) [4],ABUTH damage score (0-5) [5],SETFA damage score (0-5) [6],ABUTH damage score (0-5) [7],AMARE damage score (0-5) [8],ECHCG damage score (0-5) [9],LOLPE damage score (0-5) [10],SETFA damage score (0-5) [11],ZEAMX damage score (0-5) [12],"Pre-emergence herbicidal activity, ALOMY (damage score 0-5) ([13]; rate 1000 g/ha)","Pre-emergence herbicidal activity, AVEFA (damage score 0-5) ([14]; rate 1000 g/ha)","Pre-emergence herbicidal activity, TRAZW (damage score 0-5) ([15]; rate 1000 g/ha)","Pre-emergence herbicidal activity, ECHCG (damage score 0-5) ([3]; rate 1000 g/ha)","Pre-emergence herbicidal activity, LOLPE (damage score 0-5) ([4]; rate 1000 g/ha)","Pre-emergence herbicidal activity, SETFA (damage score 0-5) ([6]; rate 1000 g/ha)","Post-emergence herbicidal activity, AVEFA (damage score 0-5) ([16]; rate 1000 g/ha)","Post-emergence herbicidal activity, ECHCG (damage score 0-5) ([9]; rate 1000 g/ha)",other results
"CC(=O)Nc1ccc(-c2cncc(F)c2)nc1C(F)(F)F [Compound C9, N-[6-(5-fluoro-3-pyridyl)-2-(trifluoromethyl)-3-pyridyl]acetamide]",2,5,3,2,1,4,2,2,4,3,5,5,,,,,,,,,
"CC(C)C(=O)Nc1ccc(-c2cncc(F)c2)nc1C(F)(F)F [Compound C10, N-[6-(5-fluoro-3-pyridyl)-2-(trifluoromethyl)-3-pyridyl]-2-methyl-propanamide]",0,5,4,2,1,4,1,1,4,3,4,5,,,,,,,,,
COC(=O)CCC(=O)N(C(=O)CCC(=O)OC)c1ccc(-c2cncc(F)c2)nc1C(F)(F)F [Compound C119],,,,,,,,,,,,,0,2,0,5,1,5,4,5,"Post-emergence herbicidal activity, LOLPE (damage score 0-5) ([10]; rate 1000 g/ha): 3; Post-emergence herbicidal activity, ALOMY (damage score 0-5) ([17]; rate 1000 g/ha): 1; Post-emergence herbicidal activity, SETFA (damage score 0-5) ([11]; rate 1000 g/ha): 5; Post-emergence herbicidal activity, TRAZW (damage score 0-5) ([18]; rate 1000 g/ha): 3"
"O=C(Nc1ccc(-c2cncc(F)c2)nc1C(F)(F)F)c1cncnc1 [Compound C120, N-[6-(5-fluoro-3-pyridyl)-2-(trifluoromethyl)-3-pyridyl]pyrimidine-5-carboxamide]",,,,,,,,,,,,,0,3,0,4,1,5,3,5,"Post-emergence herbicidal activity, LOLPE (damage score 0-5) ([10]; rate 1000 g/ha): 3; Post-emergence herbicidal activity, ALOMY (damage score 0-5) ([17]; rate 1000 g/ha): 1; Post-emergence herbicidal activity, SETFA (damage score 0-5) ([11]; rate 1000 g/ha): 5; Post-emergence herbicidal activity, TRAZW (damage score 0-5) ([18]; rate 1000 g/ha): 2"
"CCC(=O)N(C(C)=O)c1ccc(-c2cncc(F)c2)nc1C(F)(F)F [Compound C121, N-acetyl-N-[6-(5-fluoro-3-pyridyl)-2-(trifluoromethyl)-3-pyridyl]propanamide]",,,,,,,,,,,,,,,,,,,,,"Pre-emergence herbicidal activity, ALOMY (damage score 0-5) ([13]; rate 250 g/ha): 0; Pre-emergence herbicidal activity, AVEFA (damage score 0-5) ([14]; rate 250 g/ha): 2; Pre-emergence herbicidal activity, TRAZW (damage score 0-5) ([15]; rate 250 g/ha): 0; Pre-emergence herbicidal activity, ECHCG (damage score 0-5) ([3]; rate 250 g/ha): 3; Pre-emergence herbicidal activity, LOLPE (damage score 0-5) ([4]; rate 250 g/ha): 1; Pre-emergence herbicidal activity, SETFA (damage score 0-5) ([6]; rate 250 g/ha): 5; Post-emergence herbicidal activity, AVEFA (damage score 0-5) ([16]; rate 250 g/ha): 4; Post-emergence herbicidal activity, ECHCG (damage score 0-5) ([9]; rate 250 g/ha): 4; Post-emergence herbicidal activity, LOLPE (damage score 0-5) ([10]; rate 250 g/ha): 3; Post-emergence herbicidal activity, ALOMY (damage score 0-5) ([17]; rate 250 g/ha): 1; Post-emergence herbicidal activity, SETFA (damage score 0-5) ([11]; rate 250 g/ha): 5; Post-emergence herbicidal activity, TRAZW (damage score 0-5) ([18]; rate 250 g/ha): 1"
